Measurements reported in publication PMC11878259 (2025).

What was measured:
[1] = system: U50G, C52A, A66U (eBroccoli) (RNA, aptamer) GCCCGGAUAGCUCAGUCGGUAGAGCAGCGGAGACGGUCGGGUCCAGAUAGUAGUAUCUGUCGAGUUGAGUGUGGGCUCCGCGGGUCCAGGGUUCAAGUCCCUGUUCGGGCGCCA; assay: fluorescence light-up, microplate; details: 0.5 mM K+, 10 mM Na+, 0.2 mM Mg2+, 0.1 mM Ca2+; 20 mM Tris pH 7.5; 25, 37, 45 °C; 0.5 µM RNA, 10 µM compound
[2] = system: Cy5-labeled eBroccoli (RNA, aptamer) GCCCGGAUAGCUCAGUCGGUAGAGCAGCGGAGACGGUCGGGUCCAGAUAGUAGUAUCUGUCGAGUUGAGUGUGGGCUCCGCGGGUCCAGGGUUCAAGUCCCUGUUCGGGCGCCA; assay: fluorescence imaging in RNA-peptide condensates; details: 100 mM K+, 1 mM Mg2+; 40 mM Tris pH 7.5, room temperature; 5 µM RNA; rU22 or rA22 with [RGRGG]5 or R10
[3] = system: Cy5-labeled Broccoli (RNA, aptamer) GCCCGGAUAGCUCAGUCGGUAGAGCAGCGGAGACGGUCGGGUCCAGAUAUUCGUAUCUGUCGAGUAGAGUGUGGGCUCCGCGGGUCCAGGGUUCAAGUCCCUGUUCGGGCGCCA; assay: fluorescence imaging in RNA-peptide condensates; details: 100 mM K+, 1 mM Mg2+; 40 mM Tris pH 7.5, room temperature; 5 µM RNA; rU22 or rA22 with [RGRGG]5 or R10

Measured: binding

CC1=N/C(=C\c2cc(F)c(O)c(F)c2)C(=O)N1CC(F)(F)F
yes: all assays above
